The values that follow come from patent US9056865B2, “Pyridine-2-derivatives as smoothened receptor modulators” (Pfizer Inc., priority 2010, dated 2015).

Assay [1] concerns Gli-Luc/MEF cells. The assay is described as follows: Gli-Luc/MEF assay. It counts as cell-based, mouse. As to conditions: Mus musculus, MEF; Shh-stimulated luciferase, 48 hours. Put shortly: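 Shh-stimulated luciferase readout (Bright-Glo) after 48 h, 37 °C, 5% CO2, used to derive IC50 of inhibition. Gli-Luc transgenic mouse MEFs received test compounds at final […] in 3-fold dilutions, with recombinant mouse Shh added immediately at final 2 μg/mL.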

For assay [2], the target named is human Smo (Homo sapiens (Human), UniProt Q99835). The assay can be described thus: Smo radioligand competition binding assay. As to conditions: for inhibition at 0.05 µM: 0.05 μM test compound, read-out: Smo % inh. @ 0.05 μM. Put shortly: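 Membranes from HEK293 cells expressing surface human Smo 181-781 (40 μg protein/well) incubated 2 h at room temperature with test compound and tritiated Smo antagonist (3 nM), pH 7.5 Tris buffer; filtration and scintillation counting. Non-specific binding defined with 30 μM cold antagonist; IC50 from four-parameter sigmoidal fit.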
Chain of human Smo (Q99835 181-787): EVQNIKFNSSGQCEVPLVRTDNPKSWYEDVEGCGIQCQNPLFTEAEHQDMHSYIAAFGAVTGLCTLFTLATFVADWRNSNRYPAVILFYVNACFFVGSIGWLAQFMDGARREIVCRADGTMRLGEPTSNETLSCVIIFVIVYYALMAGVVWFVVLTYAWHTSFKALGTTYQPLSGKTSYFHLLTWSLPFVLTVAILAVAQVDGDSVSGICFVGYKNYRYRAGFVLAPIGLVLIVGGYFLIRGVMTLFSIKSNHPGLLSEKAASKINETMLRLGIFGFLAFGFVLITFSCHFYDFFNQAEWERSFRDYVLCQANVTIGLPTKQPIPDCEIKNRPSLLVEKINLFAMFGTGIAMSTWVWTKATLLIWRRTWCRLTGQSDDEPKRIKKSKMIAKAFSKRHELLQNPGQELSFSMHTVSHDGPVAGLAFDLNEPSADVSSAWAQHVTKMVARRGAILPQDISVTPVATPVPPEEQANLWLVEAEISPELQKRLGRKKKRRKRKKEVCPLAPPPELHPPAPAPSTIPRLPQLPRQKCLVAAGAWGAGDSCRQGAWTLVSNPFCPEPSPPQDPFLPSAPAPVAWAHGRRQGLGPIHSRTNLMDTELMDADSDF

As usually defined, the IC50 is the concentration that gives 50% inhibition. The low end stands for higher potency, the high end for lower potency.

The structures appear in SMILES notation.

In assay [1], `Cc1cccnc1-c1cc(N2CCC(NCCS(C)(=O)=O)CC2)ncc1Cl` [Example A-49, 1-(5′-chloro-3-methyl-2,4′-bipyridin-2′-yl)-N-[2-(methylsulfonyl)ethyl]piperidin-4-amine] registered an IC50 of 0.044 µM. In addition, in assay [2], the IC50 amounted to 0.039 µM and the inhibition at 0.05 µM was 87%.

Compound `Cc1cccnc1-c1ccnc(N2CCC(NS(C)(=O)=O)CC2)n1` [Example A-50, N-{1-[4-(3-methylpyridin-2-yl)pyrimidin-2-yl]piperidin-4-yl}methanesulfonamide] registered an IC50 in assay [1] of 0.0274 µM. Besides, in assay [2], the 50% inhibitory concentration (IC50) came to 0.0177 µM and the inhibition at 0.05 µM was 97.1%.

In the case of `Cc1cccnc1-c1cc(N2CCC(CS(C)(=O)=O)CC2)ncc1Cl` [Example A-51, 5′-chloro-3-methyl-2′-{4-[(methylsulfonyl)methyl]piperidin-1-yl}-2,4′-bipyridine], in assay [1], the half-inhibitory concentration (IC50) was found to be 0.0236 µM. Further, in assay [2], the concentration for half-maximal inhibition (IC50) was found to be 0.0358 µM and the inhibition at 0.05 µM amounted to 87.8%.

Regarding `Cc1cccnc1-c1cc(N2CCC(NC(=O)CC(C)(C)O)CC2)ncc1Cl` [Example A-52, N-(1-(5′-chloro-3-methyl-[2,4′-bipyridin]-2′-yl)piperidin-4-yl)-3-hydroxy-3-methylbutanamide], the IC50 in assay [1] came to 0.028 µM; in assay [2] it was 0.0543 µM. Further, the inhibition at 0.05 µM in assay [2] amounted to 90.6%.

For the compound `CS(=O)(=O)CC1CCN(c2ccc(Cl)c(-c3ccccn3)n2)CC1` [Example A-53, 3-chloro-6-{4-[(methylsulfonyl)methyl]piperidin-1-yl}-2,2′-bipyridine], the IC50 was 0.0273 µM in assay [1] and 0.0382 µM in assay [2]. Besides, the inhibition at 0.05 µM in assay [2] worked out at 93.3%.

Take `Cc1cccnc1-c1cc(N2CCC(C(=O)NCc3ncc[nH]3)CC2)ncc1Cl` [Example A-54, 1-(5′-chloro-3-methyl-2,4′-bipyridin-2′-yl)-N-(1H-imidazol-2-ylmethyl)piperidine-4-carboxamide]: in assay [1], inhibition was half-maximal at 0.0554 µM (IC50). Further, in assay [2], the IC50 is 0.0649 µM and the inhibition at 0.05 µM worked out at 86.1%.

`Cc1cccnc1-c1cc(N2CCC(C(=O)NC3(c4ccccn4)CC3)CC2)ncc1Cl` [Example A-55, 1-(5′-chloro-3-methyl-2,4′-bipyridin-2′-yl)-N-(1-pyridin-2-ylcyclopropyl)piperidine-4-carboxamide]: the IC50 worked out at 0.0252 µM in assay [1] and 0.0633 µM in assay [2]. The inhibition at 0.05 µM in assay [2] is 83.7%.

With `Cc1cccnc1-c1cc(N2CCC(C(=O)N3CCC(Nc4ccccn4)CC3)CC2)ncc1Cl` [Example A-56, N-(1-{[1-(5′-chloro-3-methyl-2,4′-bipyridin-2′-yl)piperidin-4-yl]carbonyl}piperidin-4-yl)pyridin-2-amine], the half-maximal inhibitory concentration (IC50) in assay [1] turned out to be 0.0416 µM; in assay [2] it was 0.106 µM. The inhibition at 0.05 µM in assay [2] came out at 80.5%.

Compound `Cc1cccnc1-c1cc(N2CCC(C(=O)N[C@@H]3CCN(S(C)(=O)=O)C3)CC2)ncc1Cl` [Example A-57, 1-(5′-chloro-3-methyl-2,4′-bipyridin-2′-yl)-N-[(3R)-1-(methylsulfonyl)pyrrolidin-3-yl]piperidine-4-carboxamide] displayed an IC50 in assay [1] of 0.0782 µM. Besides, in assay [2], the IC50 worked out at 0.0907 µM and the inhibition at 0.05 µM stood at 87.9%.

Regarding `Cc1cccnc1-c1cc(N2CCC(C(=O)N[C@@H]3c4ccccc4C[C@@H]3O)CC2)ncc1Cl` [Example A-58, 1-(5′-chloro-3-methyl-2,4′-bipyridin-2′-yl)-N-[(1R,2S)-2-hydroxy-2,3-dihydro-1H-inden-1-yl]piperidine-4-carboxamide], the values for the IC50 in assay [1] and in assay [2] were 0.0388 µM and 0.184 µM, respectively. Moreover, in assay [2], the inhibition at 0.05 µM came out at 70.3%.

`COc1cnc(NC(=O)C2CCN(c3cc(-c4ncccc4C)c(Cl)cn3)CC2)cn1` [Example A-59, 1-(5′-chloro-3-methyl-2,4′-bipyridin-2′-yl)-N-(5-methoxypyrazin-2-yl)piperidine-4-carboxamide] registered an IC50 in assay [1] of 0.0212 µM. For the same compound, in assay [2], the IC50 turned out to be 0.0714 µM and the inhibition at 0.05 µM came to 89.5%.
